From US20200352976A1, “HYPOMETHYLATING AGENTS FOR USE IN TREATMENT OF CANCER” (Otsuka Pharmaceutical Co., Ltd, priority 2019, published 2020)

How the values were obtained:
[1] = Phase 3 trial safety: adverse events, ECG, mortality; type: in vivo
Source text: Two co-primary endpoints were used: complete response (CR) rate based on modified International Working Group (IWG) 2003 AML Response Criteria and OS (the number of days from randomization to death). Secondary endpoints included CRc (CR+CR with incomplete blood count recovery [CRi]+CR with incomplete platelet recovery [CRp]) rate, number of days alive and out of the hospital (NDAOH), progression-free survival (PFS), health related quality of life (QOL) by EQ-5D (consisting of the EQ-5D-5L descriptive system and the EQ Visual Analogue Scale [EQ VAS]), duration of CR (the time from first CR to time of relapse), incidence and severity of adverse events (AEs), and 30- and 60-day all-cause mortality.
The incidence and severity of adverse events (AEs) and 30- and 60-day all-cause mortality were summarized with descriptive statistics. No formal statistical testing between the treatment groups was planned for safety assessments.

[2] = Phase 2 study in relapsed/refractory AML: safety; parameters: species or system human; settings: in vivo
Description: A Phase 2 study of Compound I-1 using different regimens and doses (randomized 5-day regimen cohorts of 60 mg/m^2/d vs 90 mg/m^2/d SC) and a cohort of 10-day regimen in the first 1-4 cycles at 60 mg/m^2/d followed by subsequent cycles of 5-day regimen) was conducted as described above. Response and duration of response were assessed using IWG 2003 criteria: Complete Response (CR), CR with incomplete platelet recovery (CRp), and CR with incomplete count recovery (CRi). CR+CRp+CRi was defined as composite CR (CRc). Overall survival (OS) was assessed using the Kaplan-Meier (KM) method. Response status for each dose/regimen cohort and the overall treated population were assessed with analyses of duration of response and long-term survival.

SMILES: Nc1ncn([C@H]2CC(OP(=O)(O)OC[C@H]3O[C@@H](n4cnc5c(=O)[nH]c(N)nc54)CC3O)[C@@H](CO)O2)c(=O)n1 (stereo partly shown) [Compound I-1]
- Related AE with an outcome of death, each of: hematophagy histiocytosis, small intestinal hemorrhage, general physical health deterioration, mucormycosis, osteonecrosis ([1]; 1 subject each): 0.2%
- Discontinuations due to a related AE that was an infection event ([1]; human, in vivo): 7 subjects
- Dose reductions due to AEs ([1]; human, in vivo): 6.0%
- Related SAE anemia ([1]; human, in vivo): 1.0%
- Related SAE febrile neutropenia ([1]; human, in vivo): 13.7%
- Related SAE pneumonia ([1]; human, in vivo): 8.5%
- Related SAE sepsis ([1]; human, in vivo): 4.0%
- Related SAE septic shock ([1]; human, in vivo): 1.2%
- Related SAE thrombocytopenia ([1]; human, in vivo): 1.7%
- SAE febrile neutropenia incidence ([1]; human, in vivo): 25.2%
- SAE pneumonia incidence ([1]; human, in vivo): 28.4%
- SAE sepsis incidence ([1]; human, in vivo): 15.0%
- Treatment Discontinuation Before 4 Cycles: Adverse Event ([1]; human, in vivo): 6.4%
- Treatment Discontinuation Before 6 Cycles: Adverse Event ([1]; human, in vivo): 7.4%
- Treatment delays due to adverse events ([1]; human, in vivo): 48.1%
- AE with an outcome of death: febrile neutropenia ([1]; human, in vivo, 60 mg/m^2): 0.2%
- AE with an outcome of death: pneumonia ([1]; human, in vivo, 60 mg/m^2): 5.0%
- AE with an outcome of death: sepsis ([1]; human, in vivo, 60 mg/m^2): 6.5%
- AE with an outcome of death: septic shock ([1]; human, in vivo, 60 mg/m^2): 2.0%
- Related AE with an outcome of death: febrile neutropenia ([1]; human, in vivo, 60 mg/m^2): 0.2%
- Thirty-day all-cause mortality ([1]; human, in vivo, 60 mg/m^2, 30 day): 11.2%
- 60-day mortality ([1]; human, in vivo, 60 mg/m^2, 60 day): 20.9%
- Effect on heart rate (ECG) ([1]; in vivo): no effect on heart rate
- Effects on ECG parameters ([1]; in vivo): No effects on ECG parameters were observed
- Treatment Discontinuation Before 4 Cycles: Death ([1]; n = 408 I-1, n = 407 TC): 17.6%
- Treatment Discontinuation Before 6 Cycles: Death ([1]; n = 408 I-1, n = 407 TC): 22.5%
- Grade 3 or higher AEs related to the drug [2]: 42%
- Related serious AEs leading to death [2]: no related serious AEs leading to death
